Test [1] deals with T1, Aurora kinase A (Homo sapiens) (UniProt O14965).
T1 sequence (whole entry): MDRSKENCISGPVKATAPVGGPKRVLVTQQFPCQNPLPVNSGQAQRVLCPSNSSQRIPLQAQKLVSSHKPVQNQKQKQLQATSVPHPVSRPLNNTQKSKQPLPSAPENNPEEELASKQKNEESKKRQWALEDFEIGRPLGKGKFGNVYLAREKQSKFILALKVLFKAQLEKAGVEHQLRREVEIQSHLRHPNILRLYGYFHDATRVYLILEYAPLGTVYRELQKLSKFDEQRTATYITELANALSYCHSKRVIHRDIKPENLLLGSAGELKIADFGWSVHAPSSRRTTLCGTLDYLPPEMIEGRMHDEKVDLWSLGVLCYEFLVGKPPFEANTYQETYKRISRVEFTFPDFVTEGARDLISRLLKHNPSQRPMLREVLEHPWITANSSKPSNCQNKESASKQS
In words: Selectivity interaction (Kinase panel (Z-LYTE Assay)) EUB0001632a STK6. The note with it: at 10 µM.

In test [2] the target is Protein kinase C delta type (Homo sapiens) (UniProt Q05655). In words: Selectivity interaction (SelectScreen profiling (Invitrogen)) EUB0000607a PRKCD. As to conditions: at 2 µM.
The target in test [3] is Serine/threonine-protein kinase 26 (Homo sapiens, UniProt Q9P289). Put plainly: Selectivity interaction (ActivX KiNativ screen (kinase selectivity in THP-1 cell lysates)) EUB0000639a STK26. The test is classed as subcellular. The note with it: lysate, at 0.04 µM.
Test [4] addresses T2, Megakaryocyte-associated tyrosine-protein kinase (Homo sapiens) (UniProt P42679).
T2 sequence (whole entry): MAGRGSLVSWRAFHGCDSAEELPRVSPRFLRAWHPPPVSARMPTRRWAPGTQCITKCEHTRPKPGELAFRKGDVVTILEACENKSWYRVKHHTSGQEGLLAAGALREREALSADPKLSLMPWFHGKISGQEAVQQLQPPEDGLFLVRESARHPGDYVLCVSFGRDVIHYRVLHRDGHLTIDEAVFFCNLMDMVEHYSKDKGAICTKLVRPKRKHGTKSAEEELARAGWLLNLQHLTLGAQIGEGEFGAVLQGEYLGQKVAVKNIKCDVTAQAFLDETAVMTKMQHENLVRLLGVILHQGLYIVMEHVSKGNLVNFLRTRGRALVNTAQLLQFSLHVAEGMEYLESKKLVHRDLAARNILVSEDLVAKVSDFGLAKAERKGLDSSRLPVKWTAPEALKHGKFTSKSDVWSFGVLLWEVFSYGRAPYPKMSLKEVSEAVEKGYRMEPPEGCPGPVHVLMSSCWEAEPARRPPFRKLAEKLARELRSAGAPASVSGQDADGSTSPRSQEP
Put plainly: Selectivity interaction (Ambit KINOMEscan and KiNATiv profiling in Jurkat cells) EUB0000090b MATK. It is filed as cell-based. The note with it: at 1 µM.

Test [5] has as its target T3, Serine/threonine-protein kinase MAK (Homo sapiens) (UniProt P20794).
T3 sequence (whole entry): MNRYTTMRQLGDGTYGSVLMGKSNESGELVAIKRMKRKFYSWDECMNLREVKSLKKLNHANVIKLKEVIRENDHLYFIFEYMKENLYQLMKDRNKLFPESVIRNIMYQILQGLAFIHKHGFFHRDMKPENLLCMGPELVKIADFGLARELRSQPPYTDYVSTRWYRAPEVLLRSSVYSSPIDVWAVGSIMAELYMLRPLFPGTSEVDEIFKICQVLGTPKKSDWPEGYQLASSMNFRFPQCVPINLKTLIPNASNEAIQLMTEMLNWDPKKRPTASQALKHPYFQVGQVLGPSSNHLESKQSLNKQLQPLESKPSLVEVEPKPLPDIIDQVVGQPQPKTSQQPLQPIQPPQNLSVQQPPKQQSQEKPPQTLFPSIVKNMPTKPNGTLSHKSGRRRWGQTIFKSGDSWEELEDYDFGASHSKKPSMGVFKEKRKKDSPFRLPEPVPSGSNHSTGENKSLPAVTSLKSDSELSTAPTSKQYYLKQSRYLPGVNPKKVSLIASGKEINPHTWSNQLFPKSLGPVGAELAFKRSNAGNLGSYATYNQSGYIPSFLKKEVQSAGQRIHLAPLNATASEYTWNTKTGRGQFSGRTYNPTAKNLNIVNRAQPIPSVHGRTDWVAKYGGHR
In words: Selectivity interaction (KinomeScan (DiscoverX)) EUB0000092b MAK. The note with it: at 10 µM.

In test [6] the target is T1, Aurora kinase A (Homo sapiens). In words: Selectivity interaction (Kinase panel (KiNativ target engagement assay in Jurkat cells)) EUB0001635a STK6. As to conditions: at 1 µM. It is filed as cell-based.

The source of these data is ChEMBL document CHEMBL5465560, “Selectivity Literature for EUbOPEN Chemogenomic Library” (2024).

Each structure is given as a SMILES string.

Serine/threonine-protein kinase 26, sequence (Q9P289 2-416 limits assumed): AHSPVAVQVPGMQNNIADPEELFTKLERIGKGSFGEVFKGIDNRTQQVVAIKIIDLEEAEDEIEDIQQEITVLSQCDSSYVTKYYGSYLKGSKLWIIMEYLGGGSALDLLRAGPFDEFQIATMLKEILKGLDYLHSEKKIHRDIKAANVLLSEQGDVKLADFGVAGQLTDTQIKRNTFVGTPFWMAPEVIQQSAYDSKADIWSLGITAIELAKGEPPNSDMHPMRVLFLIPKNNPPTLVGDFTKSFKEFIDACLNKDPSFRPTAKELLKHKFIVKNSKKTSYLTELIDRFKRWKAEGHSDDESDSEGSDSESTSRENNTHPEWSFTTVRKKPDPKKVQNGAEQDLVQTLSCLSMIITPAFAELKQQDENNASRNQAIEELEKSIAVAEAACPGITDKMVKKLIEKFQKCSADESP
Protein kinase C delta type (Homo sapiens), sequence (Q05655 whole entry, looked up): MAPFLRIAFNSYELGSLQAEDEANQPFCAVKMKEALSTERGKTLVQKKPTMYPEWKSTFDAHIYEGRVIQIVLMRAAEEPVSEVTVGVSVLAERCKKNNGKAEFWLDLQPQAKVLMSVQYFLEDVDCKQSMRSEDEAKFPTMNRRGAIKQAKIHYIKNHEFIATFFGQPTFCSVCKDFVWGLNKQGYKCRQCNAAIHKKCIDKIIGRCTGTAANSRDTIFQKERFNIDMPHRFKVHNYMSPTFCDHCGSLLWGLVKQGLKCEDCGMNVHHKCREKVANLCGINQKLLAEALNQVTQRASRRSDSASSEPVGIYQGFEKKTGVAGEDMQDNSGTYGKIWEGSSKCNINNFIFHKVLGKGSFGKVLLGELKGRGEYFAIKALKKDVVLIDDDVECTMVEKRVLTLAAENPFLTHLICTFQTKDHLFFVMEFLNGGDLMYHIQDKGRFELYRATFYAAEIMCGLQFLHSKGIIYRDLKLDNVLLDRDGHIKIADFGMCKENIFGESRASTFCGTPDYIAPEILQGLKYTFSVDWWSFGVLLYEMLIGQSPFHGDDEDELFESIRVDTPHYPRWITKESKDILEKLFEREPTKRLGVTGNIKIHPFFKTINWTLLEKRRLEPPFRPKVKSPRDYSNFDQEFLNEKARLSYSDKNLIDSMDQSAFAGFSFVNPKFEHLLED

In the case of `Cn1cc(-n2cnc3c(NCc4nc5cc(Cl)c(Cl)cc5[nH]4)nc(N4CCOCC4)nc32)cn1`, the % of control in test [1] was 9.63%.
Regarding `CNC(=O)Nc1ccc(-c2nc(N3CC4CCC(C3)O4)c3cnn(C4CCC5(CC4)OCCO5)c3n2)cc1`, in test [2], the % of inhibition is 16%.
Take `CC[C@@H]1[C@H](F)C(=O)N[C@@H]1COc1nccc2cc(C(N)=O)c(OC)cc12` [ZIMLOVISERTIB]: the % of inhibition in test [3] is -3.8%.
With `CN(C)C/C=C/C(=O)Nc1ccc(C(=O)N2CCCC(Nc3ncc(Cl)c(-c4c[nH]c5ccccc45)n3)C2)cc1` (configuration not stated), in test [4], the % of control is 94%.
In the case of `CCC(=O)N1CCN(c2ccc(-n3c(=O)ccc4cnc5ccc(-c6cnc7ccccc7c6)cc5c43)cc2C(F)(F)F)CC1`, the % of control in test [5] is 68%.
On to `C=CC(=O)Nc1ccc(C(=O)Nc2[nH]nc3c2CN(C(=O)N[C@H](CN(C)C)c2ccccc2)C3(C)C)cc1`, for which the % of engagement in test [6] (Selectivity number of off-targets 0.0, Selectivity number of targets 233.0, Source Knowledge https://www.sciencedirect.com/science/article/pii/S2451945619300674?via%3Dihub) turned out to be 22.4%; in test [6] it was 26%.
